The conditions of data set [1]: 101.3 kPa, Liquid; for speed of sound: Single path-length method; for mass density: Vibrating tube method.
Data set [2] is described as follows: xn = mol fraction of the nth substance listed. The note with it: 101.3 kPa, Liquid, x2 = 0; for speed of sound: Single path-length method; for mass density: Vibrating tube method.

Experimental findings from the NIST ThermoML archive (doi:10.1021/acs.jced.9b00147) are described below.

Values joined by “and” are separate entries in the source; they are usually repeats but may differ in a detail not shown here. Equal entries are not always repeated. Numbers after ± are expanded uncertainties.

Turning to `CC(=O)[O-].OCC[NH2+]CCO` [2,2'-azanediylbis(ethanol) acetate], the speed of sound in data set [1] (293.15 K) was 1884.7 ± 20 m/s; in data set [1] (303.15 K) it was 1828.2 ± 20 m/s; in data set [1] (313.15 K) it was 1788.6 ± 20 m/s; in data set [1] (323.15 K), 1756 ± 20 m/s. Moreover, the mass density in data set [1] (293.15 K) was 1180 ± 6 kg/m3; in data set [1] (303.15 K), 1173 ± 6 kg/m3; in data set [1] (313.15 K), 1167 ± 6 kg/m3; in data set [1] (323.15 K), 1160 ± 6 kg/m3.

`CC(=O)[O-].[NH3+]CCO` [2-hydroxyethylammonium acetate]: the speed of sound in data set [1] (293.15 K) is 1812.9 ± 20 m/s; in data set [1] (303.15 K), 1781.2 ± 20 m/s; in data set [1] (313.15 K), 1754.7 ± 20 m/s; in data set [1] (323.15 K) it was 1730.9 ± 20 m/s. In addition, the mass density is 1150 ± 6 kg/m3 in data set [1] (293.15 K); 1144 ± 6 kg/m3 in data set [1] (303.15 K); 1139 ± 6 kg/m3 in data set [1] (313.15 K); 1133 ± 6 kg/m3 and 1132 ± 6 kg/m3 in data set [1] (323.15 K).

In the case of `CCCO` [propan-1-ol], the speed of sound is reported as 1223.4 ± 20 m/s in data set [1] (293.15 K), 1189.4 ± 20 m/s in data set [1] (303.15 K), 1155.5 ± 20 m/s in data set [1] (313.15 K) and 1122 ± 20 m/s in data set [1] (323.15 K). Further, the mass density in data set [1] (293.15 K) turned out to be 803.6 ± 6 kg/m3; in data set [1] (303.15 K), 795.7 ± 6 kg/m3; in data set [1] (313.15 K), 787.5 ± 6 kg/m3; in data set [1] (323.15 K) it was 779.2 ± 6 kg/m3.

Regarding `CCCO` [propan-1-ol] + CC(=O)[O-].OCC[NH2+]CCO, the speed of sound in data set [2] (293.15 K) came to 1223.4 ± 20 m/s; in data set [2] (303.15 K), 1189.4 ± 20 m/s; in data set [2] (313.15 K), 1155.5 ± 20 m/s; in data set [2] (323.15 K), 1122 ± 20 m/s. Moreover, the mass density in data set [2] (293.15 K) is 803.6 ± 6 kg/m3; in data set [2] (303.15 K), 795.7 ± 6 kg/m3; in data set [2] (313.15 K), 787.5 ± 6 kg/m3; in data set [2] (323.15 K) it was 779.2 ± 6 kg/m3.

Consider `CCCO` [propan-1-ol] + CC(=O)[O-].[NH3+]CCO, for which the speed of sound in data set [2] (293.15 K) was found to be 1223.4 ± 20 m/s; in data set [2] (303.15 K), 1189.4 ± 20 m/s; in data set [2] (313.15 K) it was 1155.5 ± 20 m/s; in data set [2] (323.15 K), 1122 ± 20 m/s. In addition, the mass density in data set [2] (293.15 K) stood at 803.6 ± 6 kg/m3; in data set [2] (303.15 K), 795.7 ± 6 kg/m3; in data set [2] (313.15 K) it was 787.5 ± 6 kg/m3; in data set [2] (323.15 K) it was 779.2 ± 6 kg/m3.

On to `CC(C)O` [propan-2-ol], for which the speed of sound in data set [1] (293.15 K) was 1174.3 ± 20 m/s; in data set [1] (303.15 K), 1122.4 ± 20 m/s; in data set [1] (313.15 K), 1087.4 ± 20 m/s; in data set [1] (323.15 K), 1051.6 ± 20 m/s. Further, the mass density in data set [1] (293.15 K) stood at 791.5 ± 6 kg/m3; in data set [1] (303.15 K), 777 ± 6 kg/m3; in data set [1] (313.15 K), 768.2 ± 6 kg/m3; in data set [1] (323.15 K) it was 759 ± 6 kg/m3.

Consider `CC(C)O` [propan-2-ol] + CC(=O)[O-].OCC[NH2+]CCO, for which the speed of sound in data set [2] (293.15 K) came out at 1174.3 ± 20 m/s; in data set [2] (303.15 K), 1122.4 ± 20 m/s; in data set [2] (313.15 K), 1087.4 ± 20 m/s; in data set [2] (323.15 K) it was 1051.6 ± 20 m/s. Moreover, the mass density in data set [2] (293.15 K) was 791.5 ± 6 kg/m3; in data set [2] (303.15 K) it was 777 ± 6 kg/m3; in data set [2] (313.15 K) it was 768.2 ± 6 kg/m3; in data set [2] (323.15 K) it was 759 ± 6 kg/m3.

In the case of `CC(C)O` [propan-2-ol] + CC(=O)[O-].[NH3+]CCO, the speed of sound in data set [2] (293.15 K) was 1174.3 ± 20 m/s; in data set [2] (303.15 K), 1122.4 ± 20 m/s; in data set [2] (313.15 K) it was 1087.4 ± 20 m/s; in data set [2] (323.15 K) it was 1051.6 ± 20 m/s. In addition, the mass density in data set [2] (293.15 K) turned out to be 791.5 ± 6 kg/m3; in data set [2] (303.15 K) it was 777 ± 6 kg/m3; in data set [2] (313.15 K), 768.2 ± 6 kg/m3; in data set [2] (323.15 K), 759 ± 6 kg/m3.

As a reminder, the speed of sound is how fast a sound wave travels through the sample. The mass density is the mass of a sample divided by its volume.
